# Laboratory results as given in patent US20080160006A1, “Nutrient Medium for Maintaining Neural Cells in Injured Nervous System” (priority 2001, published 2008).
# Experiments:
# human neurons = assay: Survival of human neurons versus FGF2 concentration with or without DHEAS (FIG. 1); format: cell-based
# Excerpt: (§1) GENERAL METHODS. Brain tissue was ethically obtained by informed consent from patients before surgery under protocols approved by the Springfield Committee for Research on Human Subjects and the UC Irvine IRB. […] Rather than using aspiration to remove all tissue, slices of tissue 1-3 mm thick were obtained from cortical access ports or tissue that was marginal to the lesion. Use of electrocautery was kept to a minimum to reduce oxyradicals and other neuron damage. […] Hibernate A contains D-glucose, pyruvate, balanced salts, amino acids, and vitamins. B27 contains 5 antioxidants and 15 other components. […] After transport on ice to a laminar flow sterile hood in the culture laboratory, meninges and white matter were removed from the tissue with a scalpel and forceps in a 35 mm dish in 2 ml transport medium. […] The cell suspension was enriched for neurons by centrifugation on a density gradient of Optiprep (Invitrogen). […] The diluted Optiprep was further diluted with transport medium (v/v) to make a gradient containing 4 steps of 1 ml in a 15 ml centrifuge tube: bottom (0.35:0.65), 0.25:0.75, 0.2:0.8, top (0.15:0.85). Up to 6 ml of cell suspension was layered over the Optiprep step gradient. […] Cells were plated at a density of 320/mm^2 onto glass coverslips coated with polylysine as previously described. Cells were cultured in Neurobasal™ A medium (Invitrogen) with 2 percent B27, 5 ng/ml FGF2 (basic human recombinant fibroblast growth factor, Invitrogen) and 0.5 mM glutamine in a humidified atmosphere of 9 percent O2, and 5 percent CO2 (Forma, Marietta, Ohio). […] EGF (20 ng/ml; murine, Invitrogen) and NT3 (100 ng/ml; recombinant, Regeneron) were added as indicated from 500× stock solutions in 1 percent BSA/PBS. Half of the medium was replaced with fresh medium every 3-4 days.
# [1] = system: human cortical brain cells (neurons vs glia); assay: Adult human cortical brain cells cultured in B27/Neurobasal A, immunostained for neurofilament and GFAP; format: cell-based; details: for % GFAP (mean ± S.D.) / % Neurofilament (mean ± S.D.): addition to B27/Neurobasal A, after 6 days
# Excerpt: as §1
# For immunocytology, cultures were rinsed twice in warm PBS and fixed for 10 minutes in 4 percent paraformaldehyde in PBS. After rinsing twice with PBS, cells for GFAP staining were postfixed for 20 minutes in acetic acid/ethanol (1:9, v/v) before rinsing again with PBS. Non-specific sites were blocked, and cells were permeabilized for 5 minutes in 5 percent normal goat serum, and 0.5 percent Triton X-100. Cells were incubated with primary antibodies for 1 hour at 22° C. in 5 percent goat serum, and 0.05 percent Triton as follows: mouse anti-neurofilament 200 (1:40, Sigma) with rabbit anti-cow GFAP (1:2000, Dako), or mouse anti-MAP2 (1:250, Boeringer-Mannheim) with rabbit anti-tau (1:2000). After rinsing four times with PBS, cells were incubated 1 hour at 22° C. with a rhodamine-conjugate of goat anti-rabbit IgG (heavy+light chain, 1:500, Tago) together with a cy2-conjugate of goat anti-mouse IgG (heavy+light chain, 1:100, Jackson). After rinsing four times in PBS, coverslips were mounted with Aquamount and imaged through a Nikon 60×/1.4 objective using a Spot cooled CCD camera (Diagnostic Instruments).
# Human cortical brain tissue was obtained for culture from eleven consecutive surgical cases, including seven tumor cases, three cases of epilepsy, and one case of suprabulbar palsy. Patients ranged in age from 41 to 70 years.
# Neuronal Characteristics of Isolated Cells. Cytoskeletal components were used as specific markers to distinguish neurons from glia. Microtubule associated proteins, MAP2 and tau, are generally associated with somatodendritic and axonal regions of neurons, respectively. Neurofilament 200 is a common intermediate filament protein restricted to neurons, and GFAP is restricted to astroglia. All preparations were immunostained for at least one of these markers.
# [2] = surgical sample 1, glioma r. temporal, 46 M
# [3] = surgical sample 2, tumor r. temporal, 69 M
molecule,measurement,setting,value
"C[C@]12CC[C@H](OS(=O)(=O)O)CC1=CC[C@@H]1[C@@H]2CC[C@]2(C)C(=O)CC[C@@H]12 [DHEAS, dehydroepiandrosterone 3-sulphate]",lowering of the FGF2 ED50 for survival,human neurons; DHEAS at 10 μg/ml,10 fold
same,survival at intermediate DHEAS concentrations,"human neurons; DHEAS at 1 and 3 μg/ml, data not shown",intermediate survival between 0 and 10 μg/ml
same,survival with FGF2 at lower concentrations (FIG. 1),human neurons; lower FGF2 concentrations,synergistic for survival with FGF2
"EGF: trophic factor EGF, murine, Invitrogen (NSYPGCPSSYDGYCLNGGVCMHIESLDSYTCNCVIGYSGDRCQTRDLRWWELR; Epidermal growth factor; UniProt P01132 977-1029, looked up)",survival of neurofilament positive cells versus FGF2 alone,"[1]; added in addition to FGF2, sample 4",no more efficacious
"FGF2: basic human recombinant fibroblast growth factor, Invitrogen",% GFAP (mean ± S.D.),[1]; [2],30 ± 7%
same,% Neurofilament (mean ± S.D.),[1]; [2],67±7%
same,% GFAP (mean ± S.D.),[1]; [3],> 80%
same,% Neurofilament (mean ± S.D.),[1]; [3],< 10%
same,% Neurofilament (mean ± S.D.),"[1]; surgical sample 3, glioma l. frontal, 41 M",84 ± 8%
same,% Neurofilament (mean ± S.D.),"[1]; surgical sample 4, epilepsy l. superior temp. gyrus, 33 F",16 ± 5%
same,% Neurofilament (mean ± S.D.),"[1]; surgical sample 5, meningioma r. temporal, 70 µM",17 ± 10%
